The target in experiment [1] is T1, EF2K (Homo sapiens, UniProt O00418).
T1 construct: host or cells: LN-229 cell lysate
T1 sequence (O00418 1-725): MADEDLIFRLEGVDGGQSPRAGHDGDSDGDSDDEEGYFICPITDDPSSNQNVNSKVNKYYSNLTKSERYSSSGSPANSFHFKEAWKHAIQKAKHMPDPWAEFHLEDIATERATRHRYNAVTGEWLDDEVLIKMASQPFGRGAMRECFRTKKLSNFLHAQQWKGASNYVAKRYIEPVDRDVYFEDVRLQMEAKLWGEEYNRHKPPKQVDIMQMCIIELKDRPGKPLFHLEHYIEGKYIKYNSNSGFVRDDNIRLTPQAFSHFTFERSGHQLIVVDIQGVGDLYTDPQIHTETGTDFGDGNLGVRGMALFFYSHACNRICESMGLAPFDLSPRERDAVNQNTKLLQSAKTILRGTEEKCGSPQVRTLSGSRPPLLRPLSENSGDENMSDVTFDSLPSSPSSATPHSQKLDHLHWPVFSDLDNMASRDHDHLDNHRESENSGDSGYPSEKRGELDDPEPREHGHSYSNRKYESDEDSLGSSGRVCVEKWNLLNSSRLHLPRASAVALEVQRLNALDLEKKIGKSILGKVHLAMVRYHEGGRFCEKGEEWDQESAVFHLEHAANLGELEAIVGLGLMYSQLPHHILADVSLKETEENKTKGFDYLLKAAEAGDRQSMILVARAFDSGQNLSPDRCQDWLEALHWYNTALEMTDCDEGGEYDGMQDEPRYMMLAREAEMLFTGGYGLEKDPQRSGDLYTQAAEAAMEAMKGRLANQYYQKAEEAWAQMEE
In words: EF2K cell-based assay (P-EF2 AlphaLISA, 2-deoxyglucose stimulated MCF10A cells). Particulars: 2.5 mM 2-deoxyglucose stimulated, P-EF2 Thr56, pIC50 = -log IC50 (M); for IC50: read-out: eEF2K_C_PThr56 pIC50 (converted). On the procedure:
In this assay, 2.5 mM 2-deoxyglucose was used to deplete intracellular ATP and activate 5′ adenosine monophosphate-activated protein kinase (AMPK) in the immortalized epithelial breast cell lines, MCF10A. MCF 10A cells were purchased from ATCC (CRL-10317).
MCF10A cells are seeded at a density of 1.25×10^5 Cells/ml at 100 μl/well in a 96-well plate and incubated for 24 hours (37° C., 5% CO2). Compound is added for 1 hour, and cell are stimulated with 2.5 mM of 2-deoxy-glucose for 4 hours. Medium is then removed, and cells are lysed in an ice-cold buffer M-PER (Thermo Scientific, 78501), containing protease and phosphatase inhibitors. P-EF2 levels are determined in these lysates using the P-EF2 AlphaLISA described above.
(§1) (pIC50 is −log IC50 where IC50 represents the concentration expressed in M at which the test compound gives 50% inhibition)

Experiment [2] addresses T1, EF2K. In words: Biochemical EF2K lysate-based kinase assay (AlphaLISA p-eEF2 Thr56). Particulars: pIC50 = -log IC50 (M), read-out: eEF2K_C_alphalisa pIC50 (converted).
Excerpt: Biochemical EF2K Lysate-Based Kinase Assay
LN-229 cells were purchased from ATCC (CRL-2611); these are glioblastoma cells. Cell lysates from LN229 were used in this kinase assay to provide both the kinase and the substrate (EF2). The AlphaLISA p-eEF2 (Thr56) detection assay was developed using a sandwich assay format with two specific antibodies recognizing different epitopes of the target, including one antibody against the phosphorylation site of interest. One anti-eEF2 antibody was conjugated onto AlphaLISA Acceptor beads, while the second antibody was biotinylated and captured by streptavidin coated Donor beads.
Compound was mixed with LN-229 cell lysates in the presence of a kinase buffer (e.g. HEPES) at a pH of 6.6, containing 10 mM Mg^2+ (e.g. magnesium acetate) and 10 mM adenosine-tri-phosphate (ATP) and incubated at room temperature for 15 minutes. The kinase reaction was stopped with excess ethylenediaminetetraacetic acid disodium salt and the biotinylated-anti phospho eEF2 antibody (3 nM) was added for 1 hour. Then the anti-EF2 acceptor beads (10 μg/ml) as well as the streptavidin coated donor beads (20 μg/ml) were added for 1 hour, and the AlphaLISA signal was measured in an Envision instrument once, left overnight, and measured again for the final read.
as §1

Experiment [3] concerns the target Vps34 (PIK3C3 lipid kinase) (Homo sapiens, UniProt Q8NEB9). In words: Biochemical Vps34 lipid kinase assay (ADP-Glo). The settings on record: for IC50: serial half-log dilution 10 μM to 0.3 nM, pIC50 = -log IC50 (M); for VPS34_1microM_% of cntrl / remaining activity at 1 µM: single dose 1 μM compound, residual activity compared to control (DMSO); for remaining activity at 1 µM: 1 h, read-out: VPS34_1microM_% of cntrl. On the procedure: Biochemical Vps34 Lipid Kinase Assay
A non-radiometric kinase assay (ADP-Glo™ Assay, Promega, Madison, Wi, USA) was used for measuring the kinase activity of the PIK3C3 lipid kinase. All kinase assays were performed in 96-well half-area microtiter plates in a 25 μl reaction volume. The reaction cocktail was pipetted in 3 steps in the following order: • 10 μl of ATP solution (in assay buffer, see below) • 5 μl of test sample in 5% DMSO 10 μl of enzyme/substrate mixture
All lipid kinase assays contained 50 mM HEPES (4-(2-hydroxyethyl)-1-piperazineethanesulfonic acid)-NaOH, pH 7.5, 1 mM EGTA ((ethylene glycol tetraacetic acid), 100 mM NaCl, 0.03% CHAPS (3-[(3-Cholamidopropyl)dimethylammonio]-1-propanesulfonate), 2 mM DTT (Dithiothreitol), 20 μM ATP (corresponding to the apparent ATP-Km), kinase (7.6 nM) and substrate (50 μM). The assay for PIK3C3 additionally contained 3 mM MnCl2.
The reaction cocktails were incubated at 30° C. for 60 minutes. The reaction was stopped with 25 μl ADP-Go™ reagent per well. Plates were incubated for 40 minutes at room temperature, followed by addition of 50 μl kinase detection reagent per well and incubation for 60 minutes at room temperature. Signal was determined with a microplate luminescence reader (Victor, Perkin Elmer). The assay was either performed using a single dose of compound (1 μM final concentration in the assay reaction) with resulting data expressed as residual activity compared to control (DMSO), or using a serial (half-log) dilution of compounds starting at 10 μM and down to 0.3 nM (final concentrations in the assay) with data expressed as the pIC50.
as §1
(ADP-Glo first removes unused ATP, then detects ADP through luciferase.)

Results on 14 compounds are retold here after patent US10017509B2, “Macrocylic pyrimidine derivatives” (Janssen Pharmaceutica NV, priority 2014, dated 2018).

Vps34 (PIK3C3 lipid kinase), sequence (Q8NEB9 whole entry, species assumed): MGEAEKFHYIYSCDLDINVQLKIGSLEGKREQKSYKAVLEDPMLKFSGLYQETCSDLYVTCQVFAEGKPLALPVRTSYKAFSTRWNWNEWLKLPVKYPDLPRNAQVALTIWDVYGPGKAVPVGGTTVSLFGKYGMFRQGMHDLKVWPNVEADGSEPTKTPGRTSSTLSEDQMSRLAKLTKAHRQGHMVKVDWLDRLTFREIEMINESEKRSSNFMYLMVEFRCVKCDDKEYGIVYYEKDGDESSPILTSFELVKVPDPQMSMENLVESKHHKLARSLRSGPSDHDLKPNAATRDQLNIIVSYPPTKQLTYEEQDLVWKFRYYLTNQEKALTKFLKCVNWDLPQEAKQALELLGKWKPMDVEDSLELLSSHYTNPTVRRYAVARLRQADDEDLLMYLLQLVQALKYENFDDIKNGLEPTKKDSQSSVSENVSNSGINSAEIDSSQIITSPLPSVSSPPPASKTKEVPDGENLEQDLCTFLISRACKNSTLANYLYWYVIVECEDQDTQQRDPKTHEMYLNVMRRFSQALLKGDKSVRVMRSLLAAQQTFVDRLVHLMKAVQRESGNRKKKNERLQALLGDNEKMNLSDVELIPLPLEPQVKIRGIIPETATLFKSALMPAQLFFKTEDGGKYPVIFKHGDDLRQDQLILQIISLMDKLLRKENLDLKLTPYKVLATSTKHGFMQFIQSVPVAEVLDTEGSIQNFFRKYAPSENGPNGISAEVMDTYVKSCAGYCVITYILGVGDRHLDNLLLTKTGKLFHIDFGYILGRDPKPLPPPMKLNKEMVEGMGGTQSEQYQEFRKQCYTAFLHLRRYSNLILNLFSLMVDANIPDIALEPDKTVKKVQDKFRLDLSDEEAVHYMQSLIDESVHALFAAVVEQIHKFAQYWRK

For the compound `O=C1CN2CCN(CC2)Cc2cccc(c2)Nc2nccc(n2)-c2ccc(nc2)NCC(O)CN1` (single isomer, unassigned) [Compound 24], the values for the IC50 in experiment [1], in experiment [2] and in experiment [3] were 1.1e-05 M, approximately 6.46e-07 M and 1.23e-07 M, respectively. Also, the VPS34_1microM_% of cntrl in experiment [3] is reported as 10.54 % of cntrl.
For the compound `O=C1CN2CCN(CC2)Cc2cccc(c2)Nc2nccc(n2)-c2ccc(nc2)NCC(O)CN1` (single isomer, unassigned) [Compound 25], the IC50 in experiment [1] is more than 3.02e-05 M; in experiment [2] it was 2.88e-06 M; in experiment [3], 7.76e-08 M. The remaining activity at 1 µM in experiment [3] came out at 6.36%.
As to `O=C1CN2CCN(Cc3cccc(c3)Nc3nccc(n3)-c3ccc(nc3)NCCCN1)C(CO)C2` (single isomer, unassigned) [Compound 47], the IC50 was 4.57e-06 M in experiment [1], less than 3.02e-08 M in experiment [2] and 8.32e-08 M in experiment [3]. In addition, the VPS34_1microM_% of cntrl in experiment [3] was 7.88 % of cntrl.
On the same counts, the results for `O=C1CN2CCN(Cc3cccc(c3)Nc3nccc(n3)-c3ccc(nc3)NCCCN1)C(CO)C2` (single isomer, unassigned) [Compound 48] are more than 3.02e-05 M, 5.5e-06 M, 4.27e-08 M and 3.34 % of cntrl.
In the case of `CN1CCCN(C)c2ccc(cn2)-c2ccnc(n2)Nc2cccc(c2)CN2CCN(CC1=O)CC2CO` (single isomer, unassigned) [Compound 52], the IC50 in experiment [1] is more than 3.02e-05 M; in experiment [2], 9.12e-07 M; in experiment [3], 3.98e-07 M. Also, the remaining activity at 1 µM in experiment [3] was 12.8%.
Turning to `CN1CCCN(C)c2ccc(cn2)-c2ccnc(n2)Nc2cccc(c2)CN2CCN(CC1=O)CC2CO` (single isomer, unassigned) [Compound 53], the “eEF2K_C_PThr56 pIC50” value in experiment [1] is given as less than 4.52. The IC50 in experiment [2] was 3.39e-08 M. In addition, in experiment [3], the IC50 is 2.75e-07 M and the VPS34_1microM_% of cntrl is reported as 13.15 % of cntrl.
In the case of `CC1CN2CCN1Cc1cccc(c1)Nc1nccc(n1)-c1ccc(nc1)NCCCNC(=O)C2` (single isomer, unassigned) [Compound 61], the values for the IC50 in experiment [1], in experiment [2] and in experiment [3] were more than 3.02e-05 M, 1.32e-06 M and 4.47e-08 M, respectively. Also, in experiment [3], the VPS34_1microM_% of cntrl is 6.78 % of cntrl.
`CC1CN2CCN1Cc1cccc(c1)Nc1nccc(n1)-c1ccc(nc1)NCCCNC(=O)C2` (single isomer, unassigned) [Compound 62]: the IC50 in experiment [1] is 2.04e-06 M; in experiment [2], 7.76e-08 M. Besides, the VPS34_1microM_% of cntrl in experiment [3] is given as 166.89 % of cntrl.
For `O=C1CN2CCN(CC2)Cc2cccc(c2)Nc2nccc(n2)-c2ccc(nc2)N2CC(O)CC2CCN1` (single isomer, unassigned) [Compound 89], the IC50 was more than 3.02e-05 M in experiment [1], approximately 6.31e-06 M in experiment [2] and 4.68e-08 M in experiment [3]. Besides, in experiment [3], the remaining activity at 1 µM was 13.6%.
For `CN1CCN(C)c2ccc(cn2)-c2ccnc(n2)Nc2cccc(c2)CN2CCNC(C2)C1=O` (stereo not shown) [Compound 68], the IC50 in experiment [2] is 2e-05 M; in experiment [3], 7.76e-07 M. The remaining activity at 1 µM in experiment [3] was 28.4%.
Taken in the same sequence, the figures for `CN1CCN(C)c2ccc(cn2)-c2ccnc(n2)Nc2cccc(c2)CN2CCN(C)C(C2)C1=O` (stereo not shown) [Compound 69] were more than 3.02e-05 M, 2.24e-06 M and 22.8%.
On the same counts, the results for `CN1CCCN(C)c2ccc(cn2)-c2ccnc(n2)Nc2cccc(c2)CN2CCNC(C2)C1=O` (stereo not shown) [Compound 74] are 2.04e-05 M, 4.79e-07 M and 20.7%.
Taken in the same sequence, the figures for `CN1CCCN(C)c2ccc(cn2)-c2ccnc(n2)Nc2cccc(c2)CN2CCN(CC2)C1=O` [Compound 76] were 2.34e-07 M, 3.47e-07 M and 8.71%.
In the case of `CC(C)N1CCN(C(C)C)c2ccc(cn2)-c2ccnc(n2)Nc2cccc(c2)CN2CCN(CC2)CC1=O` [Compound 121], the IC50 in experiment [2] is 1.78e-05 M. Moreover, in experiment [3], the remaining activity at 1 µM amounted to 34.1%.
